Results from patent publication US20220031723A1, “POWDERED FOOD COMPOSITION COMPRISING ERIOCITRIN” (EUROMED, S.A., priority 2020, published 2022).

assay: Urinary excretion of quantified metabolites in collected fractions after extract intake; assay type: in vivo, human; settings: after consuming lemon extract; fraction 0 to 4 h; mean ± SD
Procedure: Table 4 and Table 5 show the urinary excretion of quantified metabolites at the different fractions collected, i.e., 0-4 h (F1), 4-8 h (F2), 8-10 h (F3), and 10-24 h (F4), after extracts intake.

Compound | Metabolite quantified in urine fraction F1 [μg/mg creatinine]
Homoeriodictyol glucuronide [M6] | 13.9 ± 16.2
COc1ccc(C2CC(=O)c3c(O)cc(O)cc3O2)cc1O[C@@H]1O[C@H](C(=O)O)[C@@H](O)[C@H](O)[C@H]1O (some centres unmarked) [M8, Hesperetin 3'-O-glucuronide] | 2.1 ± 2.3
COc1ccc([C@@H]2CC(=O)c3c(O)cc(O[C@@H]4O[C@H](C(=O)O)[C@@H](O)[C@H](O)[C@H]4O)cc3O2)cc1O [M7, Hesperetin 7-O-glucuronide] | 1.2 ± 1.4
O=C1C[C@@H](c2ccc(O[C@@H]3O[C@H](C(=O)O)[C@@H](O)[C@H](O)[C@H]3O)cc2)Oc2cc(O)cc(O)c21 [M5, Naringenin 4'-O-glucuronide] | 0.8 ± 0.5
Eriodictyol sulfate [M13] | 4.6 ± 5.0
Homoeriodictyol sulfate [M10] | 3.8 ± 3.2

same assay, conditions: after consuming lemon extract; fraction 4 to 8 h; mean ± SD

Compound | Metabolite quantified in urine fraction F2 [μg/mg creatinine]
Homoeriodictyol glucuronide [M6] | 48.1 ± 90.0
COc1ccc(C2CC(=O)c3c(O)cc(O)cc3O2)cc1O[C@@H]1O[C@H](C(=O)O)[C@@H](O)[C@H](O)[C@H]1O (some centres unmarked) [M8, Hesperetin 3'-O-glucuronide] | 10.7 ± 11.3
COc1ccc([C@@H]2CC(=O)c3c(O)cc(O[C@@H]4O[C@H](C(=O)O)[C@@H](O)[C@H](O)[C@H]4O)cc3O2)cc1O [M7, Hesperetin 7-O-glucuronide] | 4.0 ± 4.7
O=C1C[C@@H](c2ccc(O[C@@H]3O[C@H](C(=O)O)[C@@H](O)[C@H](O)[C@H]3O)cc2)Oc2cc(O)cc(O)c21 [M5, Naringenin 4'-O-glucuronide] | 1.7 ± 2.7
Eriodictyol sulfate [M13] | 14.6 ± 17.3
Homoeriodictyol sulfate [M10] | 4.0 ± 5.5

same assay, conditions: after consuming lemon extract; fraction 8 to 10 h; mean ± SD

Compound | Metabolite quantified in urine fraction F3 [μg/mg creatinine]
Homoeriodictyol glucuronide [M6] | 37.2 ± 56.9
COc1ccc(C2CC(=O)c3c(O)cc(O)cc3O2)cc1O[C@@H]1O[C@H](C(=O)O)[C@@H](O)[C@H](O)[C@H]1O (some centres unmarked) [M8, Hesperetin 3'-O-glucuronide] | 9.2 ± 7.7
COc1ccc([C@@H]2CC(=O)c3c(O)cc(O[C@@H]4O[C@H](C(=O)O)[C@@H](O)[C@H](O)[C@H]4O)cc3O2)cc1O [M7, Hesperetin 7-O-glucuronide] | 2.7 ± 2.5
O=C1C[C@@H](c2ccc(O[C@@H]3O[C@H](C(=O)O)[C@@H](O)[C@H](O)[C@H]3O)cc2)Oc2cc(O)cc(O)c21 [M5, Naringenin 4'-O-glucuronide] | 1.3 ± 1.5
Eriodictyol sulfate [M13] | 11.9 ± 12.6
Homoeriodictyol sulfate [M10] | 3.6 ± 4.1

same assay, conditions: after consuming lemon extract; fraction collected at 24 h (10-24 h); mean ± SD

Compound | Metabolite quantified in urine fraction F4 [μg/mg creatinine]
Homoeriodictyol glucuronide [M6] | 6.8 ± 8.0
COc1ccc(C2CC(=O)c3c(O)cc(O)cc3O2)cc1O[C@@H]1O[C@H](C(=O)O)[C@@H](O)[C@H](O)[C@H]1O (some centres unmarked) [M8, Hesperetin 3'-O-glucuronide] | 2.2 ± 2.4
COc1ccc([C@@H]2CC(=O)c3c(O)cc(O[C@@H]4O[C@H](C(=O)O)[C@@H](O)[C@H](O)[C@H]4O)cc3O2)cc1O [M7, Hesperetin 7-O-glucuronide] | 0.6 ± 0.6
O=C1C[C@@H](c2ccc(O[C@@H]3O[C@H](C(=O)O)[C@@H](O)[C@H](O)[C@H]3O)cc2)Oc2cc(O)cc(O)c21 [M5, Naringenin 4'-O-glucuronide] | 0.4 ± 0.3
Eriodictyol sulfate [M13] | 1.5 ± 1.5
Homoeriodictyol sulfate [M10] | 0.5 ± 0.4

same assay, conditions: after consuming lemon extract; sum of fractions F1-F4; mean ± SD

Compound | Metabolite quantified in urine, Total F (24 h) [μg/mg creatinine]
Homoeriodictyol glucuronide [M6] | 106 ± 171
COc1ccc(C2CC(=O)c3c(O)cc(O)cc3O2)cc1O[C@@H]1O[C@H](C(=O)O)[C@@H](O)[C@H](O)[C@H]1O (some centres unmarked) [M8, Hesperetin 3'-O-glucuronide] | 24.2 ± 23.7
COc1ccc([C@@H]2CC(=O)c3c(O)cc(O[C@@H]4O[C@H](C(=O)O)[C@@H](O)[C@H](O)[C@H]4O)cc3O2)cc1O [M7, Hesperetin 7-O-glucuronide] | 8.5 ± 9.2
O=C1C[C@@H](c2ccc(O[C@@H]3O[C@H](C(=O)O)[C@@H](O)[C@H](O)[C@H]3O)cc2)Oc2cc(O)cc(O)c21 [M5, Naringenin 4'-O-glucuronide] | 4.2 ± 5.0
Eriodictyol sulfate [M13] | 32.6 ± 36.5
Homoeriodictyol sulfate [M10] | 9.6 ± 11.3

same assay, conditions: after consuming orange extract; fraction 0 to 4 h; mean ± SD

Compound | Metabolite quantified in urine fraction F1 [μg/mg creatinine]
COc1ccc(C2CC(=O)c3c(O)cc(O)cc3O2)cc1O[C@@H]1O[C@H](C(=O)O)[C@@H](O)[C@H](O)[C@H]1O (some centres unmarked) [M8, Hesperetin 3'-O-glucuronide] | 0.5 ± 1.5
COc1ccc([C@@H]2CC(=O)c3c(O)cc(O[C@@H]4O[C@H](C(=O)O)[C@@H](O)[C@H](O)[C@H]4O)cc3O2)cc1O [M7, Hesperetin 7-O-glucuronide] | 0.2 ± 0.6
O=C1C[C@@H](c2ccc(O[C@@H]3O[C@H](C(=O)O)[C@@H](O)[C@H](O)[C@H]3O)cc2)Oc2cc(O)cc(O)c21 [M5, Naringenin 4'-O-glucuronide] | 0.1 ± 0.1
Eriodictyol sulfate [M13] | 0.02 ± 0.01

same assay, conditions: after consuming orange extract; fraction 4 to 8 h; mean ± SD

Compound | Metabolite quantified in urine fraction F2 [μg/mg creatinine]
COc1ccc(C2CC(=O)c3c(O)cc(O)cc3O2)cc1O[C@@H]1O[C@H](C(=O)O)[C@@H](O)[C@H](O)[C@H]1O (some centres unmarked) [M8, Hesperetin 3'-O-glucuronide] | 4.3 ± 11.5
COc1ccc([C@@H]2CC(=O)c3c(O)cc(O[C@@H]4O[C@H](C(=O)O)[C@@H](O)[C@H](O)[C@H]4O)cc3O2)cc1O [M7, Hesperetin 7-O-glucuronide] | 2.1 ± 5.7
O=C1C[C@@H](c2ccc(O[C@@H]3O[C@H](C(=O)O)[C@@H](O)[C@H](O)[C@H]3O)cc2)Oc2cc(O)cc(O)c21 [M5, Naringenin 4'-O-glucuronide] | 0.3 ± 0.5
Eriodictyol sulfate [M13] | 0.1 ± 0.1

same assay, conditions: after consuming orange extract; fraction 8 to 10 h; mean ± SD

Compound | Metabolite quantified in urine fraction F3 [μg/mg creatinine]
COc1ccc(C2CC(=O)c3c(O)cc(O)cc3O2)cc1O[C@@H]1O[C@H](C(=O)O)[C@@H](O)[C@H](O)[C@H]1O (some centres unmarked) [M8, Hesperetin 3'-O-glucuronide] | 3.3 ± 4.2
COc1ccc([C@@H]2CC(=O)c3c(O)cc(O[C@@H]4O[C@H](C(=O)O)[C@@H](O)[C@H](O)[C@H]4O)cc3O2)cc1O [M7, Hesperetin 7-O-glucuronide] | 2.2 ± 3.6
O=C1C[C@@H](c2ccc(O[C@@H]3O[C@H](C(=O)O)[C@@H](O)[C@H](O)[C@H]3O)cc2)Oc2cc(O)cc(O)c21 [M5, Naringenin 4'-O-glucuronide] | 0.3 ± 0.4
Eriodictyol sulfate [M13] | 0.2 ± 0.4

same assay, conditions: after consuming orange extract; fraction collected at 24 h (10-24 h); mean ± SD

Compound | Metabolite quantified in urine fraction F4 [μg/mg creatinine]
COc1ccc(C2CC(=O)c3c(O)cc(O)cc3O2)cc1O[C@@H]1O[C@H](C(=O)O)[C@@H](O)[C@H](O)[C@H]1O (some centres unmarked) [M8, Hesperetin 3'-O-glucuronide] | 1.8 ± 1.6
COc1ccc([C@@H]2CC(=O)c3c(O)cc(O[C@@H]4O[C@H](C(=O)O)[C@@H](O)[C@H](O)[C@H]4O)cc3O2)cc1O [M7, Hesperetin 7-O-glucuronide] | 1.1 ± 3.3
O=C1C[C@@H](c2ccc(O[C@@H]3O[C@H](C(=O)O)[C@@H](O)[C@H](O)[C@H]3O)cc2)Oc2cc(O)cc(O)c21 [M5, Naringenin 4'-O-glucuronide] | 0.3 ± 0.5
Eriodictyol sulfate [M13] | 0.3 ± 0.4

same assay, conditions: after consuming orange extract; sum of fractions F1-F4; mean ± SD

Compound | Metabolite quantified in urine, Total F (24 h) [μg/mg creatinine]
COc1ccc(C2CC(=O)c3c(O)cc(O)cc3O2)cc1O[C@@H]1O[C@H](C(=O)O)[C@@H](O)[C@H](O)[C@H]1O (some centres unmarked) [M8, Hesperetin 3'-O-glucuronide] | 9.9 ± 18.9
COc1ccc([C@@H]2CC(=O)c3c(O)cc(O[C@@H]4O[C@H](C(=O)O)[C@@H](O)[C@H](O)[C@H]4O)cc3O2)cc1O [M7, Hesperetin 7-O-glucuronide] | 5.6 ± 13.2
O=C1C[C@@H](c2ccc(O[C@@H]3O[C@H](C(=O)O)[C@@H](O)[C@H](O)[C@H]3O)cc2)Oc2cc(O)cc(O)c21 [M5, Naringenin 4'-O-glucuronide] | 1.0 ± 1.5
Eriodictyol sulfate [M13] | 0.6 ± 0.9

assay: Occurrence of plasma and urine metabolites in volunteers after consuming lemon or orange extract; assay type: in vivo, human; settings: human, in vivo
From the text: Through a targeted metabolomic strategy, a total of 17 metabolites were tentatively identified (Table 3). No hesperidin or eriocitrin-derived metabolites were detected in any volunteer at baseline. All the identified metabolites were detected at least in one volunteer, independently of the extract consumed, except for the metabolites M9 (eriodictyol sulfoglucuronide) and M11 (hesperetin sulfoglucuronide), which only were detected after consuming lemon and orange extract, respectively (Table 3). These representative EICs illustrate the metabolites identified in urine (F3 fraction) after consuming lemon (FIG. 3A) and orange (FIG. 3B) extracts, and plasma after consuming lemon (FIG. 3C) and orange (FIG. 3D) extracts. From the 17 metabolites, 16 were detected after consuming lemon extract (except M11), and 15 after consuming orange extract (except M9 and M10 in urine, and M9 and M12 in plasma) (Table 3).

Compound | Occurrence Plasma LE (number of volunteers in whom metabolite was detected) | Occurrence Plasma LE (second column so headed; number of volunteers in whom metabolite was detected) | Occurrence Urine LE (number of volunteers in whom metabolite was detected) | Occurrence Urine LE (second column so headed; number of volunteers in whom metabolite was detected)
Homoeriodictyol glucuronide [M6] | 16 | 3 | 16 | 3
COc1ccc(C2CC(=O)c3c(O)cc(O)cc3O2)cc1O[C@@H]1O[C@H](C(=O)O)[C@@H](O)[C@H](O)[C@H]1O (some centres unmarked) [M8, Hesperetin 3'-O-glucuronide] | 16 | 16 | 16 | 16
COc1ccc([C@@H]2CC(=O)c3c(O)cc(O[C@@H]4O[C@H](C(=O)O)[C@@H](O)[C@H](O)[C@H]4O)cc3O2)cc1O [M7, Hesperetin 7-O-glucuronide] | 16 | 16 | 16 | 16
Eriodictyol sulfate [M13] | 16 | 10 | 16 | 12
Homoeriodictyol sulfate [M10] | 16 | 3 | 16 | 0

same assay, conditions: plasma, after consuming lemon extract (LE), n = 16 volunteers

Compound | Occurrence Plasma LE (number of volunteers in whom metabolite was detected)
O=C1C[C@@H](c2ccc(O[C@@H]3O[C@H](C(=O)O)[C@@H](O)[C@H](O)[C@H]3O)cc2)Oc2cc(O)cc(O)c21 [M5, Naringenin 4'-O-glucuronide] | 16

same assay, conditions: plasma, fourth occurrence column, probably orange extract (OE), n = 16 volunteers

Compound | Occurrence Plasma LE (second column so headed; number of volunteers in whom metabolite was detected)
O=C1C[C@@H](c2ccc(O[C@@H]3O[C@H](C(=O)O)[C@@H](O)[C@H](O)[C@H]3O)cc2)Oc2cc(O)cc(O)c21 [M5, Naringenin 4'-O-glucuronide] | 14

same assay, conditions: urine, after consuming lemon extract (LE), n = 16 volunteers

Compound | Occurrence Urine LE (number of volunteers in whom metabolite was detected)
O=C1C[C@@H](c2ccc(O[C@@H]3O[C@H](C(=O)O)[C@@H](O)[C@H](O)[C@H]3O)cc2)Oc2cc(O)cc(O)c21 [M5, Naringenin 4'-O-glucuronide] | 16

same assay, conditions: urine, third occurrence column, probably orange extract (OE), n = 16 volunteers

Compound | Occurrence Urine LE (second column so headed; number of volunteers in whom metabolite was detected)
O=C1C[C@@H](c2ccc(O[C@@H]3O[C@H](C(=O)O)[C@@H](O)[C@H](O)[C@H]3O)cc2)Oc2cc(O)cc(O)c21 [M5, Naringenin 4'-O-glucuronide] | 16
